Several values for one entry are separate records, joined by “and”; a condition that tells them apart may be missing. Equal entries are not always repeated. Where two headings read alike, the source gives them in different places.
Assays:
hair follicle cells = test: Ki67 immunofluorescence staining of cultured scalp tissue (hair follicle cell proliferation); design: species or system human; conditions: for Ki67 positive cells (%): scalp tissue, 24 hours
Description: (§1) The ratio of hair follicle telogen and the expression level of hair follicle cell proliferation-related factor proteins depending on whether 3-hydroxypropionic acid was applied or not were evaluated according to the following methods.
(§2) The human hair follicles or scalp tissues provided for research purposes (IRB No. 4-2023-1052; Institutional Review Board, Severance Medical Center, Yonsei University College of Medicine) were washed several times with PBS to remove residual impurities, and randomly divided into each group. The hair follicles and scalp tissues were cultured in Williams' Medium E (Sigma) supplemented with 2 mM L-glutamine (Sigma-Aldrich), 10 µg/ml insulin (Sigma-Aldrich), 100 ng/ml hydrocortisone (Sigma-Aldrich), 0.1% fungizone (Gibco, USA), and 1% antibioticantimycotic (Gibco), and 1% […] (Gibco) at 37°C in 5% CO2.
After the scalp tissue was treated with the test composition for 24 hours, the obtained tissue was prepared into a frozen block, and frozen sectioned at a thickness of 5 µm using a Cryostat microtome (Leica Biosystems, Germany), and the tissue sections were attached onto Silane-coated slides. Then, in order to stain the tissue sections and photograph the cross sections, the OCT compound was removed, a primary antibody specifically binding to Ki67 (Anti-Ki67 antibody: ab15580; abcam) was attached, and a fluorescently labeled secondary antibody specifically binding to this primary antibody (Goat pAb to Rb IgG (H+L): a11012; Invitrogen) was attached. Finally, the tissues were fixed with a fixative containing blue fluorescent DAPI (VECTASHIELD® mounting medium with DAPI; Vector laboratories) that stains the cell nucleus, and then images were taken at 100x magnification using a fluorescence microscope (M2; Zeiss). The percentage of Ki67-expressing cells among the total cells labeled with DAPI was measured from the captured images, and a higher value means a higher number of Ki67-expressing cells.

human hair follicles = test: Ratio of hair follicle telogen in DHT-treated cultured hair follicles (visual evaluation); conditions: for Telogen ratio (%): 6 days
Description: as §1, §2
To induce the telogen in the anagen hair follicle tissue, the test composition was treated with 1 µM dihydrotestosterone (DHT). The medium was replaced every 3 days and cultured for 6 days. The ratio of hair follicle telogen was visually evaluated based on the ratio of hair follicles in which the telogen occurred for 6 days compared to day 0.

TGF-β1 = TGF-β1 gene expression by real-time PCR (relative quantification vs GAPDH); assay type: cell-based, Human; conditions: for mrna remaining at 0.0125 %: 3HP 0.0125 %; for mrna remaining at 0.025 %: 3HP 0.025 %
Description: (§3) Human follicle dermal papilla cells (PromoCell GmbH) were cultured in human follicle dermal papilla cells growth medium(PromoCell GmbH) supplemented with fetal calf serum(FCS), bovine pituitary extract(BPE), basic fibroblast growth factor(bFGF), and insulin at 37°C and 5% CO2.
(§4) The cultured human follicle dermal papilla cells were divided into 5x10^4 cells in a 96-well plate, and when the cells reached 80% or more confluency, they were treated with the 3-hydroxypropionic acid aqueous solution according to Preparation Example 1 at four concentrations (3HP concentrations: 0 wt.%, 0.0125 wt.%, 0.025 wt.%, and 0.05 wt.%), and then cultured for 24 hours. Then, the total RNA in the cells was extracted, and cDNA was synthesized from the extracted RNA. The synthesized cDNA was subjected to real-time polymerase chain reaction. And, the relative quantitative analysis of each gene was performed using GAPDH (one of the house-keeping genes). The relative quantification (RQ) value was calculated according to the following Equation 2. RQ = 2−ΔΔCT; ΔΔCT = ΔCT (Treatment)−ΔCT (Control); ΔCT = CT (Targetgene)−CT (House-keepinggene) [formula]
(§5) In the Equation 2, 'Treatment' is the group treated with 3HP; 'Control' is the group not treated with 3HP; 'Target gene' is Srd5α1 and TGF-β1, and 'House-keeping gene' is GAPDH.

Srd5α1 = test: 5α-reductase gene expression by real-time PCR (relative quantification vs GAPDH); assay type: cell-based, Human; conditions: for mrna remaining at 0.0125 %: 3HP 0.0125 %; for mrna remaining at 0.025 %: 3HP 0.025 %
Description: as §3, §4, §5

[1] = Cell viability (WST / CCK-8 absorbance at 450 nm); assay type: cell-based, Human; conditions: human, follicle dermal papilla cells, 24 hours
Description: as §3
(§6) […] WST substrate solution (high sensitivity water soluble tetrazolium salt, CCK-8, DOJINDO) was then added to the medium, and cultured at 37°C for 2 hours.
(§7) During the culture, a […] formazan was produced by the reaction between WST and intracellular dehydrogenase, and the absorbance (OD, wavelength 450 nm) was measured. The cell viability was calculated according to the following Equation 1 below, and the results are shown in Table 1 below. [formula]
(§8) In Equation 1, the 'experimental group' is the group treated with an aqueous solution containing 3HP; the 'control group' is the medium containing only the WST substrate; and the 'negative control group' is the group in which a medium containing WST substrate was treated with an aqueous solution of 0% 3HP.

[2] = system: Human follicle dermal papilla cells; test: Cell viability (WST / CCK-8 absorbance at 450 nm); assay type: cell-based; conditions: for Human follicle dermal papilla cell viability (%): 24 hours, single runs (Once / Two times / Three times), 1440 min
Description: as §3, §6, §7, §8

[3] = Homo sapiens, 24 h, 24 hours, human follicle dermal papilla cells, Average, read-out: TGF-β1 gene expression level (RQ)
[4] = Homo sapiens, 24 h, 24 hours, human follicle dermal papilla cells, single runs (Once / Two times / Three times), read-out: TGF-β1 gene expression level (RQ)
[5] = Homo sapiens, 24 h, 24 hours, human follicle dermal papilla cells, Average, read-out: 5α-reductase gene expression level (RQ)
[6] = Homo sapiens, 24 h, 24 hours, human follicle dermal papilla cells, single runs (Once / Two times / Three times), read-out: 5α-reductase gene expression level (RQ)

**Q.** For `O=C(O)CCCC[C@@H]1SC[C@@H]2NC(=O)N[C@@H]21` [Biotin, reference compound], which “Ki67 positive cells (%)” value (hair follicle cells; 2 ng/ml Biotin) is on record?
**A.** 44.631%

**Q.** And the “Telogen ratio (%)” value (human hair follicles; DHT + 2 ng/ml Biotin)?
**A.** 10.000%

**Q.** For `C[C@]12CCC(=O)C[C@@H]1CC[C@@H]1[C@@H]2CC[C@]2(C)[C@@H](O)CC[C@@H]12` [DHT, dihydrotestosterone, reference compound], which “Telogen ratio (%)” value (human hair follicles; 1 µM DHT alone (DHT control group)) is on record?
**A.** 40.000%

**Q.** With `O=C(O)CCO` [Example 3HP, 3-hydroxypropionic acid] as the compound, how does the “proliferation effect of hair follicle cells” value (hair follicle cells; 0.1% 3HP compared to the negative control group, Ki67 immunofluorescence staining, result in words) read?
**A.** significantly increased

**Q.** And the “Ki67 positive cells (%)” value (hair follicle cells; 0.1% 3HP)?
**A.** 48.745%

**Q.** What about the mrna remaining at 0.0125 % (TGF-β1; [3]) of the same compound?
**A.** 80.2%

**Q.** And the mrna remaining at 0.0125 % (TGF-β1; [4])?
**A.** 75.6%

**Q.** What about the mrna remaining at 0.025 % (TGF-β1; [3]) of the same compound?
**A.** 69.4%

**Q.** What about the mrna remaining at 0.025 % (TGF-β1; [4]) of the same compound?
**A.** 70.4%

**Q.** And the mrna remaining at 0.05 % (TGF-β1; Homo sapiens, 24 h, 3HP 0.05 %, 24 hours, human follicle dermal papilla cells, Average, read-out: TGF-β1 gene expression level (RQ))?
**A.** 130%

**Q.** And the “expression of the TGF-β1 gene” value (TGF-β1; under the treatment concentration of Table 4, result in words)?
**A.** significantly inhibited

**Q.** And the “hair follicle telogen ratio” value (human hair follicles; 0.1%, 0.5%, and 1.0% 3HP compared to the DHT control group, result in words)?
**A.** significantly decreased

**Q.** And the “Telogen ratio (%)” value (human hair follicles; DHT + 0.1% 3HP)?
**A.** 6.250%

**Q.** And the “Telogen ratio (%)” value (human hair follicles; DHT + 0.5% 3HP)?
**A.** 0.000%

**Q.** And the “Telogen ratio (%)” value (human hair follicles; DHT + 1.0% 3HP)?
**A.** 0.000%

**Q.** What about the mrna remaining at 0.0125 % (Srd5α1; [5]) of the same compound?
**A.** 86.6%

**Q.** What about the mrna remaining at 0.0125 % (Srd5α1; [6]) of the same compound?
**A.** 85.6%

**Q.** And the mrna remaining at 0.025 % (Srd5α1; [5])?
**A.** 88.8%

**Q.** What about the mrna remaining at 0.025 % (Srd5α1; [6]) of the same compound?
**A.** 87.1%

**Q.** What about the mrna remaining at 0.05 % (Srd5α1; Homo sapiens, 24 h, 3HP 0.05 %, 24 hours, human follicle dermal papilla cells, Average, read-out: 5α-reductase gene expression level (RQ)) of the same compound?
**A.** 127%

**Q.** And the “expression of the 5α-reductase gene” value (Srd5α1; under the treatment concentration of Table 3, result in words)?
**A.** significantly inhibited

**Q.** And the viability at 24 h ([1]; 3HP 0.0125 %, Average)?
**A.** 92.6%

**Q.** And the viability at 24 h ([1]; 3HP 0.0125 %, single runs (Once / Two times / Three times))?
**A.** 90.8%

**Q.** What about the viability at 24 h ([1]; 3HP 0.025 %, Average) of the same compound?
**A.** 86.7%

**Q.** And the viability at 24 h ([1]; 3HP 0.025 %, single runs (Once / Two times / Three times))?
**A.** 86.6%

**Q.** What about the viability at 24 h ([1]; 3HP 0.05 %, Average) of the same compound?
**A.** 85.8%

**Q.** And the viability at 24 h ([1]; 3HP 0.05 %, single runs (Once / Two times / Three times))?
**A.** 86.5%

**Q.** What about the viability at 24 h ([1]; 3HP 0.1%, Average) of the same compound?
**A.** 75.3%

**Q.** What about the viability at 24 h ([1]; 3HP 0.1%, single runs (Once / Two times / Three times)) of the same compound?
**A.** 77.5%

**Q.** And the “Human follicle dermal papilla cell viability (%)” value ([2]; 3HP 0.0125 %)?
**A.** 92.037% and 95.062%

**Q.** And the “Human follicle dermal papilla cell viability (%)” value ([2]; 3HP 0.025 %)?
**A.** 84.153% and 89.275%

**Q.** And the “Human follicle dermal papilla cell viability (%)” value ([2]; 3HP 0.05 %)?
**A.** 86.027% and 85.031%

**Q.** And the “Human follicle dermal papilla cell viability (%)” value ([2]; 3HP 0.1%)?
**A.** 72.756% and 75.694%

**Q.** What about the cell viability ([2]; under the treatment concentrations of Table 2, result in words) of the same compound?
**A.** high

**Q.** For `CC(C)(C)NC(=O)[C@H]1CC[C@H]2[C@@H]3CC[C@H]4NC(=O)C=C[C@]4(C)[C@H]3CC[C@]12C` [Finasteride, reference compound], which “Telogen ratio (%)” value (human hair follicles; DHT + 0.5 mM Finasteride) is on record?
**A.** 0.000%

**Q.** Which “Ki67 positive cells (%)” value (hair follicle cells; 0.1 mM Minoxidil) does the source give for `Nc1cc(N2CCCCC2)nc(N)[n+]1[O-]` [Minoxidil, reference compound] here?
**A.** 47.187%

Reference: patent EP4684783A1, “COSMETIC COMPOSITION FOR PREVENTING, ALLEVIATING, OR AMELIORATING HAIR LOSS” (LG Chem, Ltd., priority 2023, dated 2025)
